Target: T1, GST-PLK1 (Homo sapiens, UniProt P53350)
T1 construct: Full-length, active GST-PLK1 is purified from Sf9 insect cells; made in house; host or cells: Sf9 insect cells
Assay: Biochemical Characterization Assay: GST-PLK1 kinase HTRF assay with GST-p53 substrate
Details: full-length GST-PLK1, GST-p53 and ATP, 37° C. for 35 minutes, HTRF signal
Protocol: Biochemical Characterization Assay
Full-length, active GST-PLK1 is purified from Sf9 insect cells, and full-length GST-p53 is purified from E. coli. Anti-phospho p53 antibody is from Cell Signaling Technology. Europium-conjugated anti-rabbit antibody is from PerkinElmer Life and Analytical Sciences. APC-conjugated anti-GST antibody is from Prozyme.
To assay compounds of the invention, two microliters of test compound (0.6 nM-4 mM) in DMSO or plain DMSO for control wells, 38 microliters of 20 mM HEPES pH 7, 50 mM NaCl, 10 mM MgCl2, 0.5 mM TCEP, 0.1 mM sodium orthovanadate, 0.1 mg/mL BSA, and 0.05% Triton X-100 (Kinase Assay Buffer) are added. […] Six microliters of GST-PLK1 (3 ug/mL) in Kinase Assay Buffer are then added and the solution incubated at 37° C. for 35 minutes. Six microliters of solution containing 43 mM EDTA to stop the reaction and a 1:600 dilution of anti-phospho-p53 antibody in 20 mM HEPES pH 7, 50 mM NaCl, and 0.5 mg/mL BSA (Antibody Binding Buffer) are added and the solution incubated at 37° C. for 30 minutes. […] The HTRF signal is read on an Envision reader from PerkinElmer Life and Analytical Sciences.

T1 sequence (P53350 whole entry): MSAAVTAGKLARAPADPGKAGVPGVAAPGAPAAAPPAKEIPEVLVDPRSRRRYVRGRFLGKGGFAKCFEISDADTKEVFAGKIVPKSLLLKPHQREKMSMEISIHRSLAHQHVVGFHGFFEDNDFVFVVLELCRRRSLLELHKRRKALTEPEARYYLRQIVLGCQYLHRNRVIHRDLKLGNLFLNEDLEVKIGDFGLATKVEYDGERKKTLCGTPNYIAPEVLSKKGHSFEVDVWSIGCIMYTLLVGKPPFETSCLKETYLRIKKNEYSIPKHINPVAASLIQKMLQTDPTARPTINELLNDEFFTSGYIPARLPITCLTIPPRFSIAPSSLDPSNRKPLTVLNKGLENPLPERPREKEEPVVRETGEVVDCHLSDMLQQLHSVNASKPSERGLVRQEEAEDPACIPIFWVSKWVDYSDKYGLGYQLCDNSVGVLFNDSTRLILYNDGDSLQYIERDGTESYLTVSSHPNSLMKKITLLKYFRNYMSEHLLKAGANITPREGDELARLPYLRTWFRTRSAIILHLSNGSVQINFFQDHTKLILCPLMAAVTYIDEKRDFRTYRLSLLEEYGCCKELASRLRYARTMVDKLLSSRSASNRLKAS

| SMILES | IC50 [nM] |
| --- | --- |
| COc1cc(C(=O)NC2CCN(C)CC2)ccc1Nc1ncc2c(n1)N(C1CCCC1)CC(C)C(=O)N2C (racemic) [I-2, (rac)-4-(9-Cyclopentyl-5,7-dimethyl-6-oxo-6,7,8,9-tetrahydro-5H-pyrimido[4,5-b][1,4]diazepin-2-ylamino)-3-methoxy-N-(1-methyl-piperidin-4-yl)-benzamide] | < 500 |
| COc1cc(C(=O)O)ccc1Nc1ncc2c(n1)N(C1CCCC1)C(C)CC(=O)N2C (racemic) [I-3, (rac)-4-(9-Cyclopentyl-5,8-dimethyl-6-oxo-6,7,8,9-tetrahydro-5H-pyrimido[4,5-b][1,4]diazepin-2-ylamino)-3-methoxy-benzoic acid] | 500 to 5000 |
| COc1cc(C(=O)NC2CCN(C)CC2)ccc1Nc1ncc2c(n1)N(C1CCCC1)C(C)CC(=O)N2C (racemic) [I-4, (rac)-4-(9-Cyclopentyl-5,8-dimethyl-6-oxo-6,7,8,9-tetrahydro-5H-pyrimido[4,5-b][1,4]diazepin-2-ylamino)-3-methoxy-N-(1-methyl-piperidin-4-yl)-benzamide] | < 500 |
| CC1CN(C2CCCC2)c2nc(Nc3ccc(C(=O)NC4CCN(C)CC4)cc3)ncc2N(C)C1=O (racemic) [I-6, (rac)-4-(9-Cyclopentyl-5,7-dimethyl-6-oxo-6,7,8,9-tetrahydro-5H-pyrimido[4,5-b][1,4]diazepin-2-ylamino)-N-(1-methyl-piperidin-4-yl)-benzamide] | < 500 |
| Cc1cc(C(=O)NC2CCN(C)CC2)ccc1Nc1ncc2c(n1)N(C1CCCC1)CC(C)C(=O)N2C (racemic) [I-8, (rac)-4-(9-Cyclopentyl-5,7-dimethyl-6-oxo-6,7,8,9-tetrahydro-5H-pyrimido[4,5-b][1,4]diazepin-2-ylamino)-3-methyl-N-(1-methyl-piperidin-4-yl)-benzamide] | < 500 |
| COc1cc(C(=O)NC2CCN(Cc3ccccc3)CC2)ccc1Nc1ncc2c(n1)N(C1CCCC1)CC(C)C(=O)N2C (racemic) [I-9, (rac)-N-(1-Benzyl-piperidin-4-yl)-4-(9-cyclopentyl-5,7-dimethyl-6-oxo-6,7,8,9-tetrahydro-5H-pyrimido[4,5-b][1,4]diazepin-2-ylamino)-3-methoxy-benzamide] | < 500 |
| CCC1CN(C2CCCC2)c2nc(Nc3ccc(C(=O)NC4CCN(C)CC4)cc3OC)ncc2N(C)C1=O (racemic) [I-13, (rac)-4-(9-Cyclopentyl-7-ethyl-5-methyl-6-oxo-6,7,8,9-tetrahydro-5H-pyrimido[4,5-b][1,4]diazepin-2-ylamino)-3-methoxy-N-(1-methyl-piperidin-4-yl)-benzamide] | < 500 |
| CCC1CN(C2CCCC2)c2nc(Nc3ccc(C(=O)NC4CCN(C)CC4)cc3OC)ncc2N(CC)C1=O (racemic) [I-15, (rac)-4-(9-Cyclopentyl-5,7-diethyl-6-oxo-6,7,8,9-tetrahydro-5H-pyrimido[4,5-b][1,4]diazepin-2-ylamino)-3-methoxy-N-(1-methyl-piperidin-4-yl)-benzamide] | 500 to 5000 |
| CCCC1CN(C2CCCC2)c2nc(Nc3ccc(C(=O)NC4CCN(C)CC4)cc3OC)ncc2N(C)C1=O (racemic) [I-17, (rac)-4-(9-Cyclopentyl-5-methyl-6-oxo-7-propyl-6,7,8,9-tetrahydro-5H-pyrimido[4,5-b][1,4]diazepin-2-ylamino)-3-methoxy-N-(1-methyl-piperidin-4-yl)-benzamide] | 500 to 5000 |
| COc1cc(C(=O)NC2CCN(C)CC2)ccc1Nc1ncc2c(n1)N(C1CCCCC1)CC(C)C(=O)N2 (racemic) [I-18, (rac)-4-(9-Cyclohexyl-7-methyl-6-oxo-6,7,8,9-tetrahydro-5H-pyrimido[4,5-b][1,4]diazepin-2-ylamino)-3-methoxy-N-(1-methyl-piperidin-4-yl)-benzamide] | 500 to 5000 |

The remaining lines, values ahead:

| IC50 [nM] | SMILES |
| --- | --- |
| < 500 | COc1cc(C(=O)NC2CCN(C)CC2)ccc1Nc1ncc2c(n1)N(C1CCCCC1)CC(C)C(=O)N2C (racemic) [I-19, (rac)-4-(9-Cyclohexyl-5,7-dimethyl-6-oxo-6,7,8,9-tetrahydro-5H-pyrimido[4,5-b][1,4]diazepin-2-ylamino)-3-methoxy-N-(1-methyl-piperidin-4-yl)-benzamide] |
| > 5000 | CC1CN(C2CCCCC2)c2nc(Nc3ccc4oc(-c5ccncc5)nc4c3)ncc2N(C)C1=O (racemic) [I-26, (rac)-9-Cyclohexyl-5,7-dimethyl-2-(2-pyridin-4-yl-benzooxazol-5-ylamino)-5,7,8,9-tetrahydro-pyrimido[4,5-b][1,4]diazepin-6-one] |
| 500 to 5000 | COc1cc(C(=O)NC2CCN(C)CC2)ccc1Nc1ncc2c(n1)N(CCC(C)C)CC(C)C(=O)N2C (racemic) [I-27, (rac)-4-[5,7-Dimethyl-9-(3-methyl-butyl)-6-oxo-6,7,8,9-tetrahydro-5H-pyrimido[4,5-b][1,4]diazepin-2-ylamino]-3-methoxy-N-(1-methyl-piperidin-4-yl)-benzamide] |
| < 500 | COc1cc(C(=O)NC2CCN(C)CC2)ccc1Nc1ncc2c(n1)N(C1CCCC1)C(C)C(C)C(=O)N2C (racemic) [I-41, (rac)-4-(9-Cyclopentyl-5,7,8-trimethyl-6-oxo-6,7,8,9-tetrahydro-5H-pyrimido[4,5-b][1,4]diazepin-2-ylamino)-3-methoxy-N-(1-methyl-piperidin-4-yl)-benzamide] |
| 500 to 5000 | COc1cc(C(=O)NC2CCN(C)CC2)ccc1Nc1ncc2c(n1)N(Cc1ccccc1)CC(C)C(=O)N2C (racemic) [I-42, (rac)-4-(9-Benzyl-5,7-dimethyl-6-oxo-6,7,8,9-tetrahydro-5H-pyrimido[4,5-b][1,4]diazepin-2-ylamino)-3-methoxy-N-(1-methyl-piperidin-4-yl)-benzamide] |
| < 500 | COc1cc(C(=O)NC2CCN(C)CC2)ccc1Nc1ncc2c(n1)N(C1CCOCC1)CC(C)C(=O)N2C (racemic) [I-45, (rac)-4-[5,7-Dimethyl-6-oxo-9-(tetrahydro-pyran-4-yl)-6,7,8,9-tetrahydro-5H-pyrimido[4,5-b][1,4]diazepin-2-ylamino]-3-methoxy-N-(1-methyl-piperidin-4-yl)-benzamide] |
| < 500 | COc1cc(C(=O)NC2CCN(C)CC2)ccc1Nc1ncc2c(n1)N(C1CC1)C(C)C(C)C(=O)N2C (racemic) [I-46, (rac)-4-(9-Cyclopropyl-5,7,8-trimethyl-6-oxo-6,7,8,9-tetrahydro-5H-pyrimido[4,5-b][1,4]diazepin-2-ylamino)-3-methoxy-N-(1-methyl-piperidin-4-yl)-benzamide] |
| 500 to 5000 | CC1CN(C2CCCC2)c2nc(Nc3ccc(O)c(NC(=O)c4cccnc4)c3)ncc2N(C)C1=O (racemic) [I-47, (rac)-N-[5-(9-Cyclopentyl-5,7-dimethyl-6-oxo-6,7,8,9-tetrahydro-5H-pyrimido[4,5-b][1,4]diazepin-2-ylamino)-2-hydroxy-phenyl]-nicotinamide] |
| 500 to 5000 | CC1CN(C2CCCC2)c2nc(Nc3ccc(O)c(NC(=O)c4ccncc4)c3)ncc2N(C)C1=O (racemic) [I-48, (rac)-N-[5-(9-Cyclopentyl-5,7-dimethyl-6-oxo-6,7,8,9-tetrahydro-5H-pyrimido[4,5-b][1,4]diazepin-2-ylamino)-2-hydroxy-phenyl]-isonicotinamide] |
| 500 to 5000 | COc1cc(C(=O)NC2CCN(C)CC2)ccc1Nc1ncc2c(n1)N(C1CCCC1)CC(CCO)C(=O)N2C (racemic) [I-49, (rac)-4-[9-Cyclopentyl-7-(2-hydroxy-ethyl)-5-methyl-6-oxo-6,7,8,9-tetrahydro-5H-pyrimido[4,5-b][1,4]diazepin-2-ylamino]-3-methoxy-N-(1-methyl-piperidin-4-yl)-benzamide] |
